Source: patent US11197812B2, “Cosmetic formulations for topical applications containing erythropoietin-derived molecules” (ASC REGENITY LTD., priority 2016, dated 2021)
Where no end group is shown, it is not given here.

What was measured:
[1] = tested on: severe acne on the face and neck; assay: Acne Trial 1 (single test person); assay type: in vivo, human; settings: after one week of treatment with the respective formulation
Experimental: The test person was a person with severe acne on the face and neck. They were treated for one week with a standard cosmetic formulation based on a control lipid (dexpanthenol/panthenol), but without a polypeptide according to the invention. […] Then a cosmetic formulation according to the invention was applied, but again without a polypeptide according to the invention. The formulation contained ceramides and lecithin instead of dexpanthanol, and amino acids such as L-arginine. […] The test person then was treated with a formulation of the invention now comprising “Peptide 0”. […] After 3 weeks the test person was treated with the same formulation but which now comprised “Peptide 4” instead of the reference polypeptide (“Peptide 0”).

[2] = tested on: facial skin of healthy subjects; assay: Cosmetic skin improvement assay (Canfield VISIA facial skin analysis); assay type: in vivo, human; settings: cream once a day, after one month, versus controls / dexpanthenol 5% / QEQLERALNSS formulation
Source text: In this assay the cosmetic facial skin appearance upon application of the formulations of this invention was monitored. For that purpose, the commercially available state-of-the-art facial skin imaging and data analysis platform, the Canfield Bio Visia™, was utilized, (see here: https://www.canfieldsci.com/imaging-systems/visia-complexion-analysis/). This platform provides the possibility of a i) highly standardized, ii) highly reproducible, iii) quantitative, iv) non-invasive, and vi) subject or tester bias-free skin quality analysis. It records several photos of the face from different angles and records absorption/reflection spectra (see figure: Canfield VISIA facial skin analysis platform). […] The in-built software standardizes every parameter by comparison to a large database of skin feature norms and returns a value in the range of 0%-to 100% to permit inter-individual subject comparison.
Healthy subjects received cosmetic creams with formulations of this invention or controls in a blinded manner, i.e. the subjects were unaware of the identity of the received cosmetic cream. […] Subject skin quality was assessed before the start of the application and after one month (31±3 days). As a control, to account for seasonal and lifestyle change associated skin quality changes, quality of the hand exterior surface was monitored as well. […]

[3] = tested on: UV light-induced erythema on skin of healthy subjects; assay: Erythema recovery assay (UVB light-induced erythema, doubled MED); assay type: in vivo, human; settings: 20 μl lotion on 1×1 cm^2 area, 6 hours after exposure, normalized redness
Source text: Another means of measuring the efficacy of tissue-protection exerted by any formulation is the speed of skin recovery from a UVB light-induced erythema such as common sunburns. Erythema are skin irritations with enhanced redness of the skin due to local hyperaemia (enhanced blood flow in superficial capillaries) that is associated with repair processes in the skin. The quicker the repair process is, the quicker the hyperaemia gets shut down and thus the quicker the skin redness gets reduced to normal levels. Accordingly, the redness can be measured as a proxy for the damage status of the skin.
In this assay, healthy subjects received the doubled minimal erythema dose (MED) on skin areas of about 1×1 cm^2 on the left arm. Beforehand, the MED was determined individually for each subject by exposing other skin areas to increasing intensities of UV light emitted by the UV6 lamp (280-360 nm) of the Waldmann UV 802 L device. […]
Before light double MED exposure and after 6 hours, skin redness in the exposed area was spectroscopically measured using the ‘chroma meter CR-400’ manufactured by Konica Minolta. Redness of every area in every subject 6 hours after the exposure was normalized to the redness of the same area before the exposure by division of measured redness values. […]

skin = assay: Relative cosmetic relevance in over-all skin-protective activity; parameters: species or system human
[4] = tested on: persons suffering from acne; settings: human, in vivo
Experimental: Four test groups (corresponding to the “peptides, 0, 2, 3 and 4”) with each five persons (in total, 20 subjects) suffering from acne, were treated twice daily with a formulation of the invention (“iARP-lotion” with trigger factor complex) for one week. No undesirable or even pathological lesions in the relevant skin area of the test persons were observed.

CC(C)(CO)[C@@H](O)C(=O)NCCCO [Dexpanthenol]
change of acne [1]: slightly reduced

NEQLERALNST (RRQEQLERALNSSRR; ′Peptide 0′ plus vasculature relaxation stimulating agents at 5′- and 3′ end;) [Peptide 1]
improvement of measured skin parameters (spots, wrinkles, smoothness) [2]: performed even better than the formulations with the previously described […] peptide
double MED-induced skin redness (erythema) [3]: performed even better than the formulations with the previously described […] peptide
relative cosmetic relevance in over-all skin-protective activity (rank order) (skin): EPO<EPO fragments 1-3<Peptide 0, 1<Peptide 3<Peptide 2<Peptide 4

NEQLERALNTS [Peptide 2, NEQLERALNTS]
overall skin tolerance compatibility [4]: improved overall skin tolerance compatibility as excellent
unwanted skin reactions caused by skin-irritating or sensitizing effects [4]: did not trigger any unwanted skin reactions

QDQLERALNST [Peptide 3, QDQLERALNST]
overall skin tolerance compatibility [4]: improved overall skin tolerance compatibility as excellent
unwanted skin reactions caused by skin-irritating or sensitizing effects [4]: did not trigger any unwanted skin reactions

QDQLERALNTS [Peptide 4, QDQLERALNTS]
overall skin tolerance compatibility [4]: still rated good
unwanted skin reactions caused by skin-irritating or sensitizing effects [4]: did not trigger any unwanted skin reactions

QEQLERALNSS [Peptide 0, QEQLERALNSS, reference compound]
unwanted skin reactions caused by skin-irritating or sensitizing effects [4]: did not trigger any unwanted skin reactions
